Assay results taken from US20260083692A1 (Strongbridge Dublin Limited, priority 2018, published 2026).
Where two headings read alike, the source gives them in different places.

Tests used:
human OAT1 [1] = biological target: T1, human OAT1 (Homo sapiens, UniProt Q4U2R8); assay: cell-based
T1 sequence (Q4U2R8 1-563): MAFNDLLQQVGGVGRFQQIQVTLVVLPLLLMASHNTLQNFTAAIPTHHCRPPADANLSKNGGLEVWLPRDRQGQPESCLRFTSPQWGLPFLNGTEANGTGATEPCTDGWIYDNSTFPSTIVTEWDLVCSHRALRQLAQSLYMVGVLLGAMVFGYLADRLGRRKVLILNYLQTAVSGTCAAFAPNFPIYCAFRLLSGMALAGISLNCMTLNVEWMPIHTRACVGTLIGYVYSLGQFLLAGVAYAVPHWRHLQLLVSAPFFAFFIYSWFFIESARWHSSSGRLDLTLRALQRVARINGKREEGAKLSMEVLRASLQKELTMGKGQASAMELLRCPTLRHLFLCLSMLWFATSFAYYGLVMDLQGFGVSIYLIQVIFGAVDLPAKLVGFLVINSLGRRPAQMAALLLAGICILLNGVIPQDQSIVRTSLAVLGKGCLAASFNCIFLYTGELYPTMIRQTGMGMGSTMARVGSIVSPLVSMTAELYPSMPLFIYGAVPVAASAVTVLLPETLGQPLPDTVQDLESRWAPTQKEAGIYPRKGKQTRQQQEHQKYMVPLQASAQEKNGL

human OAT1 [2] = biological target: T1, human OAT1; conditions: for Uptake (Average ± SD), OAT1: OAT1-expressing HEK293 cells; for Uptake (Average ± SD), Control: control HEK293 cells (vector only); for % control: relative to solvent control

NS(=O)(=O)c1cc(Cl)c(Cl)c(S(N)(=O)=O)c1 [Dichlorphenamide, 4,5-dichloro-1,3-benzenedisulfonamide]
IC50 (human OAT1 [1]): 17.7 µM | Uptake (Average ± SD), OAT1 (human OAT1 [2]; inhibitor 1 μM): 6.99 pmol/mg protein | Uptake (Average ± SD), OAT1 (human OAT1 [2]; inhibitor 3 μM): 5.99 ± 1.16 pmol/mg protein | Uptake (Average ± SD), OAT1 (human OAT1 [2]; inhibitor 10 μM): 3.70 ± 0.44 pmol/mg protein | Uptake (Average ± SD), OAT1 (human OAT1 [2]; inhibitor 30 μM): 3.25 ± 0.39 pmol/mg protein | Uptake (Average ± SD), OAT1 (human OAT1 [2]; inhibitor 100 μM): 1.79 ± 0.25 pmol/mg protein | Uptake (Average ± SD), OAT1 (human OAT1 [2]; inhibitor 300 μM): 1.47 ± 0.12 pmol/mg protein | Uptake (Average ± SD), OAT1 (human OAT1 [2]; inhibitor 1000 μM): 0.669 ± 0.099 pmol/mg protein | Uptake (Average ± SD), Control (human OAT1 [2]; inhibitor 1 μM): 0.0857 pmol/mg protein | Uptake (Average ± SD), Control (human OAT1 [2]; inhibitor 3 μM): 0.107 ± 0.040 pmol/mg protein | Uptake (Average ± SD), Control (human OAT1 [2]; inhibitor 10 μM): 0.0571 ± 0.0257 pmol/mg protein | Uptake (Average ± SD), Control (human OAT1 [2]; inhibitor 30 μM): 0.612 ± 0.907 pmol/mg protein | Uptake (Average ± SD), Control (human OAT1 [2]; inhibitor 100 μM): 0.150 ± 0.026 pmol/mg protein | Uptake (Average ± SD), Control (human OAT1 [2]; inhibitor 300 μM): 0.0452 ± 0.0082 pmol/mg protein | Uptake (Average ± SD), Control (human OAT1 [2]; inhibitor 1000 μM): 0.119 ± 0.022 pmol/mg protein | IC50 parameters: Max (human OAT1 [2]; fit of OAT1 inhibition curve): Max: 115% | IC50 parameters: Min (human OAT1 [2]; fit of OAT1 inhibition curve): Min: 0% | Background corrected uptake rate (human OAT1 [2]; inhibitor 1 μM): 6.90 pmol/mg/min | % control (human OAT1 [2]; inhibitor 1 μM): 112% | Background corrected uptake rate (human OAT1 [2]; inhibitor 3 μM): 5.88 pmol/mg/min | % control (human OAT1 [2]; inhibitor 3 μM): 95.6% | Background corrected uptake rate (human OAT1 [2]; inhibitor 10 μM): 3.64 pmol/mg/min | % control (human OAT1 [2]; inhibitor 10 μM): 59.2% | Background corrected uptake rate (human OAT1 [2]; inhibitor 30 μM): 2.64 pmol/mg/min | % control (human OAT1 [2]; inhibitor 30 μM): 42.9% | Background corrected uptake rate (human OAT1 [2]; inhibitor 100 μM): 1.64 pmol/mg/min | % control (human OAT1 [2]; inhibitor 100 μM): 26.7% | Background corrected uptake rate (human OAT1 [2]; inhibitor 300 μM): 1.42 pmol/mg/min | % control (human OAT1 [2]; inhibitor 300 μM): 23.1% | Background corrected uptake rate (human OAT1 [2]; inhibitor 1000 μM): 0.550 pmol/mg/min | % control (human OAT1 [2]; inhibitor 1000 μM): 8.9%

CO[C@@H]1[C@@H](OC(N)=O)[C@@H](O)[C@H](Oc2ccc3c(O)c(NC(=O)c4ccc(O)c(CC=C(C)C)c4)c(=O)oc3c2C)OC1(C)C [Novobiocin]
Uptake (Average ± SD), OAT1 (human OAT1 [2]; inhibitor 300 μM): 0.425 ± 0.071 pmol/mg protein | Uptake (Average ± SD), Control (human OAT1 [2]; inhibitor 300 μM): 0.231 ± 0.048 pmol/mg protein | Background corrected uptake rate (human OAT1 [2]; inhibitor 300 μM): 0.194 pmol/mg/min | % control (human OAT1 [2]; inhibitor 300 μM): 3.2%
